For experiment [1], the target named is T1, TLR1/2 (Mus musculus, UniProt Q9EPQ1+Q9QUN7).
T1 construct: production of NO in RAW 264.7 macrophage cells; endogenous in cells; host or cells: RAW 264.7
The experiment can be described thus: In vitro TLR1/2 inhibition assay (nitric oxide, Pam3CSK4-activated RAW 264.7 macrophages). The format is cell-based. As to conditions: RAW 264.7 NO assay; for TLR1/2 inhibitory activity (in words, SAR and specificity): Pam3CSK4. The protocol: To identify novel TLR1/2 complex inhibitors, a cell-based assay was employed to screen the NCI-2 diversity small-molecule library. This 1,363 compound library was chosen from the larger NCI library, which has more than 140,000 compounds, on the basis of availability, purity, and other pharmacological features, such as relative rigidity, number of rotatable bonds and chiral centers, the absence of obvious leaving groups and weakly bounded heteroatoms, etc. Screening was performed in a 96-well plate format using a previously established high-throughput nitric oxide (NO) assay. See e.g. Cheng et al., Small molecule inhibitors of the TLR3/dsRNA complex, J. Am. Chem. Soc. (2011), 133:3764-67, which is herein incorporated by reference in its entirety. Briefly, synthetic triacylated lipoprotein Pam3CSK4 was employed to selectively activate TLR1/2 signaling, resulting in the expression of inducible nitric oxide synthase (iNOS) and the production of NO in RAW 264.7 macrophage cells. NO levels were monitored as an indicator of Pam3CSK4-induced TLR1/2 activation to evaluate the compound's inhibitory activity.
RAW 264.7 (Mouse leukaemic monocyte macrophage cell line) cells were grown in RPMI 1640 medium, supplemented with 10% FBS, penicillin (100 U/mL) and streptomycin ([…]). RAW cells were then planted in 96-well plates at 80,000 cells per well and grown for 24 h in the media descried previously at 37° C. in a 5% CO2 humidified incubator. After 24 h, non-adherent cells and media were removed and replaced with fresh unsupplemented RPMI 1640 medium. The adherent macrophages were treated with Pam3CSK4 (CAS No. 112208-00-1; a synthetic triacylated lipopeptide (LP) that mimics the acylated amino terminus of bacterial LPs) (200 ng/mL) (Invivogen, USA), an agonist of TLR1/2, and then added different concentrates of potential inhibitor. Two rows were only treated with Pam3CSK4 as control. Plates were then incubated for an additional 24 h. Following incubation 100 μL of media was removed and added to flat black 96-well microfluor plates (Thermo Scientific, MA, USA). To each well, 10 μL of 2,3-diaminonaphthalene (0.05 mg/mL in 0.62 M aqueous HCl solution) was added and incubated for 15 min in the dark. The reaction was quenched by addition of 5 μL of a 3 M aqueous NaOH solution and the plate was read on Beckman Coulter DTX880 reader (Beckman Coulter, Calif., USA) with excitation at 365 nm and emission at 450 nm. The nitrite (a stable metabolite of nitric oxide) concentration was determined from a nitrite standard curve. The inhibition rate (%) of NO release was determined using the following formula: Inhibition (%)=[Pam3CSK4(OD450) […]]/[Pam3CSK4 (OD450)−Control (OD450)]×100. The IC50 values for both inhibition and cytotoxicity were determined graphically using software Origin v7.5.

For experiment [2], the target named is T2, TLR1/2 (Homo sapiens, UniProt O60603+Q15399). The experiment can be described thus: Fluorescence anisotropy competition assay with rhodamine-labeled Pam3CSK4. More on the design: His; TLR2 made in house; host or cells: baculovirus; Sf-9 for virus, High Five insect cells for expression (TLR2). Conditions: negative control. Format: binding. An excerpt: The TLR2 protein was expressed in the baculovirus insect cell expression system using the methods described by Kuroki et al. See Iwaki et al., The extracellular Toll-like receptor 2 domain directly binds peptidoglycan derived from Staphylococcus aureus, J. Biol Chem (2002), 277:24315-20, which is herein incorporated by reference in its entirety. The activity of the TLR2 protein was validated by the fluorescence anisotropy assay. […] Good fitting (R2>0.98) inferred that compound 17 and Pam3CSK4 compete for the same binding site on the TLR1/2 dimeric surface.
In 500 μL Tris buffer (pH=7.2) add 10 μL, (1 ng/mL) rhodamine-labeled Pam3CSK4, test the fluorescence anisotropy at excitation of 549 nm and emission of 566 nm (Horiba Fluorolog 3). And 5 μL (20 μM) TLR1 (R &D) and 5 μL, (20 μM) TLR2 was added into the above buffer, then retest the anisotropy. Following, compound 17 or compound 6 was added in the buffer from the concentration of 0 to 6 μM, and the fluorescence anisotropy was tested in the corresponding concentration.
Fluorescence polarization experiments were performed at 25° C. using a Horiba Fluorolog-3 fluorometer. For direct binding measurements, serial dilutions of TLR1 (R&D, MN) and TLR2 were made in Tris buffer (pH=7.2), and an aliquot (10 μL) of 1 ng/mL rhodamine labeled Pam3CSK4, was added to a total volume of 500 μL. The competition binding solution was incubated for 30 minutes at 25° C. Serial dilutions of compound 17 or compound 6 were incubated with 20 μM TLR1, 20 μM TLR2 and rhodamine-labeled Pam3CSK4 for 30 min at room temperature.
Regression analysis was carried out using Origin 7.5 (OriginLab) ligand binding macro module. […] Equation (1): y=min+(max−min)/(1+10^x-logIC50)(total binding, x=log concentration of and rhodamine-labeled Pam3CSK4, min=nonspecific binding, max=maximum binding in absence of ligand). Equation (2): Ki=IC50/(1+[L]/Kd) ([L]=concentration of rhodamine-labeled Pam3CSK4).
Background: Fluorescence polarisation rises when a labelled molecule tumbles more slowly, as on binding a larger partner.
Target sequence in this assay (Q15399 25-580 limits assumed): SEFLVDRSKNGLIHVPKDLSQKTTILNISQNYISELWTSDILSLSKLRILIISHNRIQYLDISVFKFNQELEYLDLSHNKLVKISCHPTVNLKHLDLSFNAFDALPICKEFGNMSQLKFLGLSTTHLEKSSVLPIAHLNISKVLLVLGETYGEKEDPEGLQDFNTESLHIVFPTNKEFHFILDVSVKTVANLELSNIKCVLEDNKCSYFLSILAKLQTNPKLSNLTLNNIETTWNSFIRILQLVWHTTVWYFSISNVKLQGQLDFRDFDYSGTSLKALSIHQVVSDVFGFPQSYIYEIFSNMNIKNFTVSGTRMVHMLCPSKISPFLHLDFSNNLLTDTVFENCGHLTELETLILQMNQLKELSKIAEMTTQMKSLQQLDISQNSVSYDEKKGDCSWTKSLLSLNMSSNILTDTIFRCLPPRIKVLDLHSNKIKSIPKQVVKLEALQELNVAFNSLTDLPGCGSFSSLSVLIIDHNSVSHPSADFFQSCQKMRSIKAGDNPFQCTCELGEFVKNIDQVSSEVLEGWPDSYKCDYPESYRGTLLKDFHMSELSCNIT
Target sequence in this assay (O60603 21-588 limits assumed): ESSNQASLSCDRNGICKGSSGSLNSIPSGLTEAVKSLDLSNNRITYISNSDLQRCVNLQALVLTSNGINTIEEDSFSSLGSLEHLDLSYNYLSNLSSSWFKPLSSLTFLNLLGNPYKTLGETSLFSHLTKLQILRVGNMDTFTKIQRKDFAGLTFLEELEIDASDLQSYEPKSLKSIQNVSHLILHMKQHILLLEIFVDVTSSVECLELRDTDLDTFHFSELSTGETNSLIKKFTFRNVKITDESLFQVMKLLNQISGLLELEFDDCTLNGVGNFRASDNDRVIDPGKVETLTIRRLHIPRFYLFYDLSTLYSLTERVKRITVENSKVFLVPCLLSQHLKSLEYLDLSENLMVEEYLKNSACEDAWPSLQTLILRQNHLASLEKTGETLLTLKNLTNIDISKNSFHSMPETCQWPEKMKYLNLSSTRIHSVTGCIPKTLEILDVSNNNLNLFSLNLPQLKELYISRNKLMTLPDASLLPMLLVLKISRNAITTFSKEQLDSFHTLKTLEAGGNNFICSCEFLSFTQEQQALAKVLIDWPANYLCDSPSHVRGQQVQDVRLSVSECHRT

Experiment [3] has as its target T2, TLR1/2. As to conditions: read-out: known affinity (Kd); cited from earlier work.
Target sequence in this assay (Q15399 25-786): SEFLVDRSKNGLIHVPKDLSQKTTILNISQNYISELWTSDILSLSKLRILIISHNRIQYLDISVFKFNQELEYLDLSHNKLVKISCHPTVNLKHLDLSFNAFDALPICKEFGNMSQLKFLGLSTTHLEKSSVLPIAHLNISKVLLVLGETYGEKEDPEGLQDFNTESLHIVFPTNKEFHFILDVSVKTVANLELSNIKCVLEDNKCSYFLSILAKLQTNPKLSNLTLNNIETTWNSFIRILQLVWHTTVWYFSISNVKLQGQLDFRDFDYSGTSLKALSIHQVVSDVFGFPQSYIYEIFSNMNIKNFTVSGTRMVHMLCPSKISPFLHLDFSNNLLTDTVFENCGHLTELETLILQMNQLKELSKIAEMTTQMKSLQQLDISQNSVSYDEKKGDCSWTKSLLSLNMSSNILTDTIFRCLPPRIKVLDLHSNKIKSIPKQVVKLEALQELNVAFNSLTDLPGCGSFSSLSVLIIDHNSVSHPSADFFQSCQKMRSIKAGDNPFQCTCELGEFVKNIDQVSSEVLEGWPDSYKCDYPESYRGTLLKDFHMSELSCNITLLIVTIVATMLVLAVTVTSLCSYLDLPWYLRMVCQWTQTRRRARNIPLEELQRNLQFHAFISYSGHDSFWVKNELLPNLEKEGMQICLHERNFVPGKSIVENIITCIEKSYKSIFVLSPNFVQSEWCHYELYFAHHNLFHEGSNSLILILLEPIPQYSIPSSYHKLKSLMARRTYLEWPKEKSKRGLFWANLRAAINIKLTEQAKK
Target sequence in this assay (O60603 21-784): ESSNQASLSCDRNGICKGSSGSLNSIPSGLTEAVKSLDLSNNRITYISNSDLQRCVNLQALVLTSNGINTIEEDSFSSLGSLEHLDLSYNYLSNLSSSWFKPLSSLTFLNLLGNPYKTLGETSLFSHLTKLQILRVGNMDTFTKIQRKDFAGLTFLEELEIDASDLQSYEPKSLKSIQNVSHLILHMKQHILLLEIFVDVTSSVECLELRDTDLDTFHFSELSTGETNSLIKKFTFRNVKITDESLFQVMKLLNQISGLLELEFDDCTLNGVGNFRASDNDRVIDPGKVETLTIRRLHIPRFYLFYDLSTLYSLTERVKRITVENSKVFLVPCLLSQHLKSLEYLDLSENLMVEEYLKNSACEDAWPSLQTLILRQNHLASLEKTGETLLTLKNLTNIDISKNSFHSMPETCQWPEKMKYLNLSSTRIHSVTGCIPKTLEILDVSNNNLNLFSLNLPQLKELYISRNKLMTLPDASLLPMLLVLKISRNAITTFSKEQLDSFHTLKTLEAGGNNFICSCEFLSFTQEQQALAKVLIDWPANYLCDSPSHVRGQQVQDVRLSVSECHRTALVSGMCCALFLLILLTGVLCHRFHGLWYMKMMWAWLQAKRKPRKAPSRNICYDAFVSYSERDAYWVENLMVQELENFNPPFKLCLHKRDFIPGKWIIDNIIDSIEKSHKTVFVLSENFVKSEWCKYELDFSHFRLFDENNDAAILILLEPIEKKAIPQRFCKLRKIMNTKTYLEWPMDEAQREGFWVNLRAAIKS

Where only a bound is given, the exact number is not on record here.

The IC50 is the concentration at which inhibition is half-maximal. Read a high IC50 as a need for much substance. In general, Kd refers to the constant that tells how readily two partners part at equilibrium.

T1 sequence (Q9EPQ1 26-795): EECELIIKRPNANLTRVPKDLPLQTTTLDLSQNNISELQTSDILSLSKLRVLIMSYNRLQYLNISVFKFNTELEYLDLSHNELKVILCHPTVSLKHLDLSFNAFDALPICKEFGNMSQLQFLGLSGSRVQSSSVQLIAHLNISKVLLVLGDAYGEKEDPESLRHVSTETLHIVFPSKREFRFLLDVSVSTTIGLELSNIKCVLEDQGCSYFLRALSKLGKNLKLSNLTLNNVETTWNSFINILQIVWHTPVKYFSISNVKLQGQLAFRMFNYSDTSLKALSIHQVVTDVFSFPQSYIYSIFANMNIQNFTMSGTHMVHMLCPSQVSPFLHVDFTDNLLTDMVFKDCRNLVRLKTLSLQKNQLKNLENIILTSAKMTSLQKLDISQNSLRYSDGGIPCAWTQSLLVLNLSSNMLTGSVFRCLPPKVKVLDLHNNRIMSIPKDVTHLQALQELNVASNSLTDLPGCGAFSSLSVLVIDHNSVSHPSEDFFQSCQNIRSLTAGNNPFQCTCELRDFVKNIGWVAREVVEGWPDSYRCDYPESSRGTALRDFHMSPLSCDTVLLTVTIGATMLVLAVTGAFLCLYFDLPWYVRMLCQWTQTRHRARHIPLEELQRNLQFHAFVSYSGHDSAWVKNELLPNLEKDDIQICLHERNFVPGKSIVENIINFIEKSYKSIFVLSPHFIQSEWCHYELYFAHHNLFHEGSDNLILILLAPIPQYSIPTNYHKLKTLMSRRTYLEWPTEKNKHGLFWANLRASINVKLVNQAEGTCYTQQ
T1 sequence (Q9QUN7 25-784): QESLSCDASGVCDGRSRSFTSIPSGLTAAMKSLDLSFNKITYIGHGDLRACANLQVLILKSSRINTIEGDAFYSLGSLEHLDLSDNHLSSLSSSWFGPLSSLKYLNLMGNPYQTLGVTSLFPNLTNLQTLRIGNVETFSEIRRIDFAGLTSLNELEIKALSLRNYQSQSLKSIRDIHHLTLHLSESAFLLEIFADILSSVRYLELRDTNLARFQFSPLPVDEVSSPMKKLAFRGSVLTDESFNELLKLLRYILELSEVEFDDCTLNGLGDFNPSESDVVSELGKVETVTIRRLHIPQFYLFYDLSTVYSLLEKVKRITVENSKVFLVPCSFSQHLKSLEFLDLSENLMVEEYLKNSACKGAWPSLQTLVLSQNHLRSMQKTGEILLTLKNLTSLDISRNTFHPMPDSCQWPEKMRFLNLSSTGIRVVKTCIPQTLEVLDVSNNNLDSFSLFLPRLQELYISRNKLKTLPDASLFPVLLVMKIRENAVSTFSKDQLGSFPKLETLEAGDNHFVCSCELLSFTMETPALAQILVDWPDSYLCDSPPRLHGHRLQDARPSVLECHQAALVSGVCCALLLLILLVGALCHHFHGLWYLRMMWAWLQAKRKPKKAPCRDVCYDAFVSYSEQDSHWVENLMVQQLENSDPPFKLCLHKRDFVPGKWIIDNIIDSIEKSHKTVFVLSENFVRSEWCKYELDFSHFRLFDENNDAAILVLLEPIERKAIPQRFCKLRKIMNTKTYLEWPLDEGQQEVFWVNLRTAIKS

On to `COc1cc2cccc(O)c(=O)c2c(O)c1O` [compound 4, 3,4,6-trihydroxy-2-methoxy-5H-benzo[7]annulen-5-one], for which the “TLR1/2 inhibitory activity (in words, SAR and specificity)” value in experiment [1] was “no significant influence to its activity”.
Take `COc1cc2cccc(OC)c(=O)c2c(OC)c1OC` [compound 6, 2,3,4,6-tetramethoxy-5H-benzo[7]annulen-5-one]: the “TLR1/2 inhibitory activity (in words, SAR and specificity)” value in experiment [1] is listed as “significant decrease of inhibition”. Also, in experiment [2], the IC50 was > 40000 nM.
In the case of `COc1cc2cc(C(=O)O)cc(O)c(=O)c2c(O)c1O` [compound 10, 3,4,6-trihydroxy-2-methoxy-5-oxo-5H-benzo[7]annulene-8-carboxylic acid], the “decrease of TLR1/2 inhibitory activity versus comparator” value in experiment [1] (SAR comparison) is listed as “six-fold”.
In the case of `COC(=O)c1cc(O)c(=O)c2c(O)c(O)c(OC)cc2c1` [compound 11, Methyl 3,4,6-trihydroxy-2-methoxy-5-oxo-5H-benzo[7]annulene-8-carboxylate], the “TLR1/2 inhibitory activity (in words, SAR and specificity)” value in experiment [1] is “returned the activity to the NCI35676 level”.
`CCCCCCNC(=O)c1cc(O)c(=O)c2c(O)c(O)c(OC)cc2c1` [compound 22, N-hexyl-3,4,6-trihydroxy-2-methoxy-5-oxo-5H-benzo[7]annulene-8-carboxamide]: in experiment [1], the “TLR1/2 inhibitory activity (in words, SAR and specificity)” value was “activity slightly decreased”.
For `COc1cc2cc(CO)cc(O)c(=O)c2c(O)c1O` [compound 23, 3,4,6-trihydroxy-8-(hydroxymethyl)-2-methoxy-5H-benzo[7]annulen-5-one], the “TLR1/2 inhibitory activity (in words, SAR and specificity)” value in experiment [1] was “no significant change in activity”.
On to `COc1cc2cc(C(=O)Nc3ccccc3C)cc(O)c(=O)c2c(O)c1O` [compound 24, 3,4,6-trihydroxy-2-methoxy-5-oxo-N-o-tolyl-5H-benzo[7]annulene-8-carboxamide], for which the “TLR1/2 inhibitory activity (in words, SAR and specificity)” value in experiment [1] is listed as “no significant change in activity”.
As for Pam3CSK4, in experiment [3], the Kd is 1.2 nM.

(Values after patent US9517993B2, “Antagonists of the toll-like receptor 1/2 complex” (THE REGENTS OF THE UNIVERSITY OF COLORADO, a body corporate, priority 2012, dated 2016).)
